Legend:
hBK1 receptor = target: T1, hBK1 receptor (Homo sapiens, UniProt P46663); experiment: hBK1 receptor binding (displacement of [3H]-kallidin (DesArg10, Leu9) from membranes of CHO cells expressing the hBK1 receptor); settings: CHO cell membranes expressing hBK1 receptor; 0.5 to 1.0 nM [3H]-kallidin (DesArg10, Leu9); 60 minutes at room temperature
T1 construct: expressed in transfected cells; host or cells: CHO cells
T1 sequence (P46663 1-353): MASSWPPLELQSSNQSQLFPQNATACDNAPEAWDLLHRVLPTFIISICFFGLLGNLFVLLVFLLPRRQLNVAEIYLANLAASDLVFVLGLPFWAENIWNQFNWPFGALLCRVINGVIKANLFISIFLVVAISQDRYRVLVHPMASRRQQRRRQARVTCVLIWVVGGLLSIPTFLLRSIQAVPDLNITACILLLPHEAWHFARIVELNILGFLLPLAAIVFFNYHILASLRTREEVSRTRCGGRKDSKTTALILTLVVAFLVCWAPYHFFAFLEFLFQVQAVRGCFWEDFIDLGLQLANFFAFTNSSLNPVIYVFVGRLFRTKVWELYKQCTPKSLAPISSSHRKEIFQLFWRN
Method: Description of the Method of hBK1 Receptor Binding
CHO cells expressing the hBK1 receptor are cultivated in Dulbecco's modified medium. The medium from confluent cultures is removed and the cells are washed with PBS buffer, scraped off and isolated by centrifugation. The cells are then homogenized in suspension and the homogenate is centrifuged and resuspended. The protein content is determined and the membrane preparation obtained in this manner is then frozen at −80° C.
After thawing, 200 μl of the homogenate (50 to 100 μg of proteins/assay) are incubated at room temperature with 0.5 to 1.0 nM of kallidin (DesArg10, Leu9), [3,4-prolyl-3,43H(N)] and increasing concentrations of the test substance in a total volume of 250 μl for 60 minutes. The incubation is terminated by rapid filtration through GF/B glass fibre filters which had been pretreated with polyethyleneimine (0.3%). The protein-bound radioactivity is measured in a TopCount NXT. Non-specific binding is defined as radioactivity bound in the presence of 1.0 μM of kallidin (DesArg10, Leu9), [3,4-prolyl-3,43H(N)]. The concentration/binding curve is analysed using a computer-assisted nonlinear curve fitting. The Ki which corresponds to the test substance is determined using the data obtained in this manner. […]

SMILES | melting point | Ki (hBK1 receptor)
CCN(CC)CC1CCN(c2ccc(NC(=O)CCN(C)S(=O)(=O)c3c(C)cc(OC)cc3C)nn2)CC1 [Example 87] | 173 °C | 
COc1cc(C)c(S(=O)(=O)N(C)CCC(=O)N[C@H]2CC[C@H](N3CCC(CCN4CCCC4)CC3)CC2)c(C)c1 [(303)] |  | 6.32 nM
COc1cc(C)c(S(=O)(=O)N(C)CCOCC(=O)N(C)[C@@H]2CCC[C@H](N3CCN(C)CC3)C2)c(C)c1 [(421)] |  | 8.7 nM
COc1cc(C)c(S(=O)(=O)N(C)CCOCC(=O)N(C)Cc2ccc(CNC(C)(C)C)cc2)c(C)c1 [(78)] |  | 5.8 nM
COc1cc(C)c(S(=O)(=O)N(C)CCOCC(=O)N(C)Cc2ccc(N3CCC(N(C)C)C3)cc2)c(C)c1 (stereo not drawn) [(334)] |  | 8.65 nM
COc1cc(C)c(S(=O)(=O)N(C)CCOCC(=O)N(C)C2CCC(N3CCC(N4CCCC4)CC3)CC2)c(C)c1 (stereo not drawn) [(468)] |  | 1 nM
COc1cc(C)c(S(=O)(=O)N(C)CCOCC(=O)N(C)Cc2ccc(N3CCCC(N(C)C)C3)cc2C)c(C)c1 (stereo not drawn) [(381)] |  | 8.1 nM
COc1cc(C)c(S(=O)(=O)N(C)CCC(=O)NCc2ccc(N3CCC(N4CCCC4)CC3)c(C)c2)c(C)c1 [(269)] |  | 7.8 nM
COc1cc(C)c(S(=O)(=O)N(C)CCOCC(=O)N(C)C2CCC(N3CCC(C4CCN(C)CC4)CC3)CC2)c(C)c1 (stereo not drawn) [(588)] |  | 1.5 nM
COc1cc(C)c(S(=O)(=O)N(C)CCOCC(=O)N(C)Cc2ccc3[nH]c(N)nc3c2)c(C)c1 [(361)] |  | 7.4 nM
COc1cc(C)c(S(=O)(=O)N(C)CCOCC(=O)N(C)C2CCc3cc(CN4CCCC4)ccc32)c(C)c1 (stereo not drawn) [(424)] |  | 1.4 nM
CCN1CCC(N2CC[C@H](N(C)C(=O)COCCN(C)S(=O)(=O)c3c(C)cc(OC)cc3C)C2)CC1 [(401)] |  | 2.7 nM
COc1cc(C)c(S(=O)(=O)N(C)CCC(=O)Nc2ccc(N3CCN(c4cc[n+](C)cc4)CC3)cc2)c(C)c1 [(227)] |  | 4.8 nM
COc1cc(C)c(S(=O)(=O)N(C)CCOCC(=O)N(C)C[C@H]2CC[C@H](CN3CCC3)CC2)c(C)c1 [(392)] |  | 8.3 nM
COc1cc(C)c(S(=O)(=O)N(C)CCOCC(=O)N(C)[C@H]2CC[C@@H](CN3CCC(N(C)C)C3)CC2)c(C)c1 (stereo partly drawn) [(444)] |  | 6.9 nM
COc1cc(C)c(S(=O)(=O)N(C)CCOCC(=O)N(C)[C@H]2CC[C@@H](CCN3CCOCC3)CC2)c(C)c1 [(619)] |  | 1.2 nM
COc1cc(C)c(S(=O)(=O)N(C)CCOCC(=O)N(C)Cc2ccc(-c3cn4ccccc4n3)cc2)c(C)c1 [(73)] |  | 6.8 nM
COc1cc(C)c(S(=O)(=O)N(C)CCOCC(=O)N(C)[C@H]2CCN(C3CCN(C)CC3)C2)c(C)c1 [(393)] |  | 1.6 nM
COc1cc(C)c(S(=O)(=O)N(C)CCOCC(=O)N(C)Cc2ccc(-c3cn4c(n3)CCCC4)cc2)c(C)c1 [(55)] |  | 0.7 nM
COc1cc(C)c(S(=O)(=O)N(C)CCOCC(=O)N(C)Cc2ccc3nc(N)ccc3c2)c(C)c1 [(360)] |  | 4.4 nM
COc1cc(C)c(S(=O)(=O)N(C)CCOCC(=O)N(C)Cc2ccc(OCCN3CCCC3)cc2)c(C)c1 [(358)] |  | 3.5 nM
COc1cc(C)c(S(=O)(=O)N(C)CCOCC(=O)N(C)Cc2ccc(CNC(C)C)cc2)c(C)c1 [(59)] |  | 6.3 nM
COc1cc(C)c(S(=O)(=O)N(C)CCOCC(=O)N(C)Cc2ccc3[nH]c(CN(C)C)nc3c2)c(C)c1 [(404)] |  | 2.8 nM
CCC(CC)NCc1ccc(CN(C)C(=O)COCCN(C)S(=O)(=O)c2c(C)cc(OC)cc2C)cc1 [(77)] |  | 8.7 nM
COc1cc(C)c(S(=O)(=O)N(C)CCOCC(=O)N(C)[C@H]2CCN(C3CCN(CC4CC4)CC3)C2)c(C)c1 [(465)] |  | 3.8 nM
CCN(CC)CC1CCN(c2ccc(NC(=O)CCN(C)S(=O)(=O)c3c(C)cc(OC)cc3C)cc2C)CC1 [(97)] |  | 6.7 nM

SMILES | melting point | Ki (hBK1 receptor)
COc1cc(C)c(S(=O)(=O)N(C)CCOCC(=O)N(C)Cc2ccc(OCCN(C)C)c(Cl)c2)c(C)c1 [(352)] |  | 9.2 nM
COc1cc(C)c(S(=O)(=O)N(C)CCOCC(=O)N(C)C[C@H]2CC[C@H](NCCN3CCCC3)CC2)c(C)c1 [(591)] |  | 1.9 nM
COc1cc(C)c(S(=O)(=O)N(C)CCOCC(=O)N(C)CC2CCN(c3ccncc3)CC2)c(C)c1 [(61)] |  | 3.3 nM
COc1cc(C)c(S(=O)(=O)N(C)CCOCC(=O)N(C)C[C@H]2CC[C@@H](NCCN(C)C)CC2)c(C)c1 [(383)] |  | 6.2 nM
COc1cc(C)c(S(=O)(=O)N(C)CCC(=O)NC2CCN(c3ncc(CN4CCCC4)cc3Cl)CC2)c(C)c1 [(216)] |  | 4.9 nM
COc1cc(C)c(S(=O)(=O)N(C)CCOCC(=O)N(C)C[C@]2(C)CC[C@H](CN3CCCC3)C2(C)C)c(C)c1 [(423)] |  | 3.4 nM
COc1cc(C)c(S(=O)(=O)N(C)CCOCC(=O)N(C)Cc2ccc3nc(N(C)C)ccc3c2)c(C)c1 [(365)] |  | 2.4 nM
COc1cc(C)c(S(=O)(=O)N(C)CCOCC(=O)N(C)CC2CCC(N3CCN(C)CC3)CC2)c(C)c1 (stereo not drawn) [(420)] |  | 9.1 nM
COc1cc(C)c(S(=O)(=O)N(C)CCOCC(=O)N(C)C2CCN(C(=O)CCN3CCCC3)CC2)c(C)c1 [(630)] |  | 5.5 nM
COc1cc(C)c(S(=O)(=O)N(C)CCC(=O)Nc2ccc(N3CCC(CCN(C)C)CC3)c(Cl)c2)c(C)c1 [(182)] |  | 4.8 nM
COc1cc(C)c(S(=O)(=O)N(C)CCOCC(=O)N(C)[C@@H]2CCN(C3CCN(CC4CC4)CC3)C2)c(C)c1 [(458)] |  | 4.3 nM
COc1cc(C)c(S(=O)(=O)N(C)CCOCC(=O)N(C)Cc2ccc(CN3CCCC3)cc2C)c(C)c1 [(338)] |  | 1.11 nM
COc1cc(C)c(S(=O)(=O)N(C)CCOCC(=O)N(C)C2CCC(C3CCN(C)CC3)CC2)c(C)c1 (stereo not drawn) [(477)] |  | 5.8 nM
COc1cc(C)c(S(=O)(=O)N(C)CCOCC(=O)N(C)C[C@@H]2CC[C@H](CN3CCCC3)C2)c(C)c1 [(425)] |  | 8.3 nM
COc1cc(C)c(S(=O)(=O)N(C)CCC(=O)Nc2ccc(N3CCC(N(C)C)CC3)c(Cl)c2)c(C)c1 [(180)] |  | 5.2 nM
COc1cc(C)c(S(=O)(=O)N(C)CCC(=O)NC2CCN(c3ccc(CN4CCCC4)cc3Cl)CC2)c(C)c1 [(188)] |  | 9.4 nM
CCN(CC)CCC(=O)N1CC[C@@H](N(C)C(=O)COCCN(C)S(=O)(=O)c2c(C)cc(OC)cc2C)C1 [(624)] |  | 8 nM
COc1cc(C)c(S(=O)(=O)N(C)CCOCC(=O)N(C)Cc2ccc(OCC3CCCN3C)cc2)c(C)c1 (stereo not drawn) [(402)] |  | 9.3 nM
COc1cc(C)c(S(=O)(=O)N(C)CCOCC(=O)N(C)Cc2ccc(CN(C)C3CCCC3)cc2)c(C)c1 [(102)] |  | 5 nM
COc1cc(C)c(S(=O)(=O)N(C)CCOCC(=O)N(C)Cc2ccc(N(C)CCN(C)C)cc2)c(C)c1 [(323)] |  | 2.8 nM
COc1cc(C)c(S(=O)(=O)N(C)CCOCC(=O)N(C)Cc2ccc3c(c2)nc(N)n3C)c(C)c1 [(369)] |  | 3.8 nM
COc1cc(C)c(S(=O)(=O)N(C)CCC(=O)Nc2cc(Br)c(N3CCC(N(C)C)CC3)cc2C)c(C)c1 [(184)] |  | 1.3 nM
COc1cc(C)c(S(=O)(=O)N(C)CCOCC(=O)N(C)[C@H]2CC[C@@H](CN3CCC[C@H](N(C)C)C3)CC2)c(C)c1 [(473)] |  | 1.8 nM
COc1cc(C)c(S(=O)(=O)N(C)CCOCC(=O)N(C)C[C@H]2CC[C@@](C)(CN3CCCC3)C2(C)C)c(C)c1 [(474)] |  | 1.4 nM
COc1cc(C)c(S(=O)(=O)N(C)CCOCC(=O)N(C)CC2CCN(c3cc[n+](C)cc3)CC2)c(C)c1 [(114)] |  | 4.4 nM
